These results are taken from patent US20250333805A1, “HERICIUM ERINACEUS STRAIN HE015, MOLECULAR MARKERS AND USES THEREOF” (INFINITUS (CHINA) COMPANY LTD., priority 2024, published 2025).

The test system of this test is mice with chronic alcohol-induced gastric mucosal damage. The experiment in a line: Chronic alcohol-induced gastric mucosal damage mice model (60% ethanol intragastrically): body weight, survival, HE staining of gastric tissue. The test is classed as in vivo, Male KM mice. The conditions noted are these: for body weight of the mice at the end of the experiment, compared with Model: extracts 10 mg/mL, Lansoprazole 0.35 mg/mL, 0.3 mL intragastrically once daily for 2 weeks, 60% ethanol in second week, P<0.05 where significant. On the procedure: Male KM mice, SPF grade, body weight of 18-22 g, 5-6 weeks of age, feeding temperature and humidity: 23±1° C. and 55±10%; 12 h day-and-night discontinuous illumination was used; conditions of the raising room were always kept stable, thereby ensuring the reliability of the test result. The mice took food and drank water freely.
Male KM mice were adaptively raised for 7 d, and then randomly divided into the following 8 groups: • Blank control group 1: Control • Model control group 1: Model • Administration group 1: Positive • Administration group 2: HEF • Administration group 3: HEFP • Administration group 4: HEFX • Administration group 5: HESP • Administration group 6: HESX.
There were 14 mice in the Model group, and 13 mice in the other groups, and the mice were fed with an ordinary fodder.
Experimental duration is 2 weeks:
First week: the mice in each administration group were prophylactically administered intragastrically once every day; and its administration concentration is shown in Table 9; meanwhile, the mice in the Control and Model groups were administered 0.3 mL of pure water intragastrically.
Second week: the mice in the Model and each administration groups were administered 0.3 mL of 60% ethanol intragastrically once per day for modeling, to induce a chronic alcohol-induced gastric mucosal damage mice model, and modeling was performed for a week; meanwhile, the mice in the administration groups were administered (administration concentration and dosage were the same as those in the first week), the protective effects of different administration groups on gastric mucosa were observed.
Administration was stopped the night before the end of the experiment; the mice were not allowed to take food, but allowed to drink water. Eyeballs were picked out and blood was collected, and then the mice were killed by cervical dislocation; gastric tissues were taken and placed into 4% paraformaldehyde stationary solution for immobilization, for use in pathological examination.

Structures are written as SMILES.

In the case of `Cc1c(OCC(F)(F)F)ccnc1C[S+]([O-])c1nc2ccccc2[nH]1` (stereo not drawn) [Positive, Lansoprazole], the “body weight of the mice at the end of the experiment, compared with Model” value is “significantly greater than that in the Model” (FIG. 5A) and “may increase the body weight” (FIG. 5A, listed as Lansoprazole). The “death count of the mice at the end of the experiment” value (same regimen, compared with other groups, FIG. 5B) is on record as “obviously higher than that in other groups”. Also, for the setting “same regimen, gastric tissue at end of experiment, FIG. 6”, the “HE staining of mice gastric tissues (gastric mucosa morphology)” value was “necrosis exfoliation of partial mucosal epithelial cells of the gastric tissue, loose arrangement of partial cells and infiltration of a small amount of inflammatory cells”. In addition, the “survival rate of the mice at the end of the experiment, compared with Model” value (same regimen, survival curve FIG. 5B) is on record as “slightly higher than that of the Model group”. Where the note is “second week, 60% ethanol modeling, P<0.01, FIG. 5A”, the “body weight of the mice during modeling, compared with Control” value is “lower than that in the Control”.
